These results are taken from patent US12358901B2, “KV3 modulators” (priority 2018, dated 2025).

The target of data set [1] is human Kv3.1 channels (hKv3.1) (Homo sapiens, UniProt P48547). Kind of data set: cell-based. Type of data set: cell-based. The following applies: for Kv3.1 pEC50: HEK-hKv3.1 cells, -15 mV voltage step, normalised to 50 microM reference compound; for Kv3.1 max R %: maximum response relative to reference compound (50 microM). The source says: The ability of the compounds of the invention to modulate the voltage-gated potassium channel subtypes Kv3.3/Kv3.2/Kv3.1 may be determined using the following assay. Analogous methods may be used to investigate the ability of the compounds of the invention to modulate other channel subtypes.
To assess compound effects on human Kv3.1 channels (hKv3.1):
Human embryonic kidney (HEK)-hKv3.1 cell line is generated by transfecting HEK-293 cells with an expression vector with human Kv3.1 (NM_004976.4). Cells are cultured with MEM supplemented with 10% Heat-Inactivated FBS, 2 mM L-glutamine, 1% Penicillin-Streptomycin, and 0.6 mg/ml of Geneticin (G418). HEK-hKv3.1b cells were amplified in T175 cm2 flask at 37° C. with 5% CO2, using MEM amplification medium, containing the G418 selection antibiotic (0.6 mg/ml). Cells were detached every 3-4 days, using DPBS to wash twice the flask, then TrypLE to dislodge the cells, and re-plated at a density of 2-4×10^6 cells/flask.
The day of the experiment, cells are removed from the incubator and the culture medium removed. Cells are washed with 5 ml of Dulbecco's PBS (DPBS) calcium and magnesium free and detached by the addition of 3 ml Versene (Invitrogen, Italy) followed by a brief incubation at 37° C. for 5 minutes. The flask is tapped to dislodge cells and 10 ml of DPBS containing calcium and magnesium is added to prepare a cell suspension. The cell suspension is then placed into a 15 ml centrifuge tube and centrifuged for 2 min at 1200 rpm. After centrifugation, the supernatant is removed and the cell pellet re-suspended in 4 ml of DPBS containing calcium and magnesium using a 5 ml pipette to break up the pellet. Cell suspension volume is then corrected to give a cell concentration for the assay of approximately 3 million cells per ml.
Experiments are conducted at r.t. using IonWorks Quattro™ planar array electrophysiology technology (Molecular Devices Corp.) with PatchPlate™ PPC. Stimulation protocols and data acquisition are carried out using a microcomputer (Dell Pentium 4). Planar electrode hole resistances (Rp) are determined by applying a 10 mV voltage step across each well. These measurements are performed before cell addition. After cell addition and seal formation, a seal test is performed by applying a voltage step from −80 mV to −70 mV for 160 ms. Following this, amphotericin-B solution is added to the intracellular face of the electrode to achieve intracellular access. Cells are held at −70 mV. Leak subtraction is conducted in all experiments by applying 50 ms hyperpolarizing (10 mV) prepulses to evoke leak currents followed by a 20 ms period at the holding potential before test pulses.
For hKv3.2 and hKv3.1, assays from the holding potential of −70 mV, a first test pulse at −15 mV was applied for 100 ms and after 100 ms at −70 mV a second pulse at +40 mV was applied for 50 ms. Cells were then maintained for 100 ms at −100 mV and another pulse from −70 mV to +40 mV (duration 50 ms) was applied to clamp later the voltage at −40 mV during 200 ms
The intracellular solution contains the following (in mM): K-gluconate 100, KCl 54, MgCl2 3.2, HEPES 5, adjusted to pH 7.3 with KOH. Amphotericin-B solution is prepared as 50 mg/ml stock solution in DMSO and diluted to a final working concentration of 0.1 mg/ml in intracellular solution. The external solution is Dulbecco's Phosphate Buffered Saline (DPBS) and contained the following (in mM): CaCl2 0.90, KCl 2.67, KH2PO4 1.47, MgCl·6H2O 0.493, NaCl 136.9, Na3PO4 8.06, with a pH of 7.4.
Compounds of use in the invention (or reference compounds such as N-cyclohexyl-N-[(7,8-dimethyl-2-oxo-1,2-dihydro-3-quinolinyl)methyl]-N-phenylurea) are dissolved in dimethylsulfoxide (DMSO) at a stock concentration of 10 mM. These solutions are further diluted with DMSO using a Biomek FX (Beckman Coulter) in a 384 compound plate. Each dilution (1 μL) is transferred to another compound plate and external solution containing 0.05% pluronic acid (66 μL) is added. […]

Data set [2] is described as follows: Determination of brain tissue binding (equilibrium dialysis). The following applies: Sprague Dawley, rat whole brain homogenate, 5 h at 37° C. Type of data set: in vitro ADME. The procedure:
Sprague Dawley rat whole blood, collected on the week of the experiment using K3-EDTA as an anti-coagulant, is diluted with isotonic phosphate buffer 1:1 (v/v). Sprague Dawley rat whole brain, stored frozen at −20° C., is thawed and homogenised in artificial cerebrospinal fluid (CSF) 1:2 (w/v).
An appropriate amount of test compound is dissolved in DMSO to give a 10 millimolar solution. Further dilutions, to obtain a 166.7 micromolar working solution are then prepared using 50% acetonitrile in MilliQ water. This working solution is used to spike the blood to obtain a final concentration of 0.5 micromolar in whole blood. Similarly, the working solution is used to spike brain samples to obtain a final concentration of 5 micromolar in whole brain. From these spiked blood and brain preparations, control samples (n=3), are immediately extracted and used to calculate the initial recovery of the test items.
150 microL of compound-free buffer (isotonic phosphate buffer for blood or artificial CSF buffer for brain) is dispensed in one half-well and 150 microL of spiked matrix (blood or brain) is loaded in the other half-well, with the two halves separated by a semi-permeable membrane. After an equilibration period of 5 h at 37° C., 50 microL of dialysed matrix (blood or brain) is added to 50 microL of corresponding compound-free buffer, and vice-versa for buffer, such that the volume of buffer to matrix (blood or brain) remains the same. Samples are then extracted by protein precipitation with 300 microL of acetonitrile containing rolipram (control for positive ionization mode) or diclofenac (control for negative ionization mode) as internal standards and centrifuged for 10 min at 3000 rpm. Supernatants are collected (100 microL), diluted with 27% AcN in MilliQ water (200 microL) and then injected into an HPLC-MS/MS or UPLC-MS/MS system to determine the concentration of test compound present.
Blood and brain tissue binding are then determined using the following formulas: Afu=Buffer/Blood or Afu=CSF/Brain
Where Afu=apparent fraction unbound; Buffer=analyte/internal standard ratio determined in the buffer compartment; Blood=analyte/internal standard ratio determined in the blood compartment; Brain=analyte/internal standard ratio determined in the brain compartment.
[formula] where: fucr=Fraction unbound corrected; D=matrix dilution factor (D=2 for blood and D=3 for brain).
Then: % Binding=(1−fucr)×100 % Unbound=100−% Bound Brain/Blood Partition Ratio (Kbb) Determination

For data set [3], the system named is Salmonella typhimurium (TA1535, TA1537, TA98 and TA100) and Escherichia coli WP2 uvrA (pKM101). In words: Ames testing (bacterial mutagenicity, with and without S9-mix). The note with it: absence and presence of S9-mix; for Ames Result (compound): 5 to 5000 ug/plate; for Ames Result (associated aniline): aniline associated with the compound. (In general: The Ames test uses bacterial strains that need an amino acid and regain growth without it when mutated back.)

Usually EC50 stands for the midpoint of the concentration-response curve. Read a low EC50 as higher potency in that assay. The term fraction unbound denotes the share of the substance not bound to proteins or other matrix. In the case of `Cc1ccc(Oc2cnc(N3C(=O)NC(C)(C)C3=O)cn2)c2c1OCC21CC1` [Example 1, 5,5-dimethyl-3-[5-(7-methylspiro[2H-benzofuran-3,1′-cyclopropane]-4-yl)oxypyrazin-2-yl]imidazolidine-2,4-dione], in data set [1], the 50% effective concentration (EC50) was determined as 2750 nM; the “pEC50 and maxR in the Kv3.1 assay (in words)” value is “high pEC50 and high maxR”; the “Kv3.1 pEC50” value was 5.47; the “Kv3.1 max R %” value stood at 164%. In addition, the unbound share (fraction unbound) at 5 h, 5 micromolar in data set [2] was 0.043. The “Ames Result (compound)” value in data set [3] is on record as “Non- mutagenic”.

Regarding `Cc1ccc(Oc2ccc(N3C(=O)NC(C)(C)C3=O)cn2)c2c1OCC21CC1` [RE6, reference compound], in data set [1], the “Kv3.1 pEC50” value stood at 5.58 and the “Kv3.1 max R %” value stood at 144%. In addition, the fraction unbound at 5 h, 5 micromolar in data set [2] was 0.028. The “Ames Result (compound)” value in data set [3] is “Non- mutagenic”.

`CC[C@H]1NC(=O)N(c2ccc(Oc3cccc4c3C3(CC3)CO4)cn2)C1=O` [RE14, reference compound]: in data set [1], the “Kv3.1 pEC50” value is 5.2 and the “Kv3.1 max R %” value was 150%. The molecule also displayed an unbound share (fraction unbound) at 5 h, 5 micromolar in data set [2] of 0.058.

For the molecule `Cc1ccc(Oc2ccc(N)cn2)c2c1OCC21CC1` [aniline associated with RE6/RE11], the “Ames Result (associated aniline)” value in data set [3] is listed as “Mutagenic for TA1535 in the presence of metabolic activation at 150 ug/plate”.

On to `Nc1cnc(Oc2cccc3c2C2(CC2)CO3)cn1` [aniline for Example 10], for which the “Ames Result (associated aniline)” value in data set [3] is “Non-mutagenic”.

Consider `Cc1ccc(Oc2cnc(N)cn2)c2c1OCC21CC1` [aniline for Examples 1 and 9], for which the “Ames Result (associated aniline)” value in data set [3] is “Non-mutagenic”.
